Experiment [1] deals with biotinylated human Gal-3 (hGal-3) (Homo sapiens, UniProt P17931). Kind of experiment: Competitive binding assay: biotinylated hGal-3 binding to microplate-adsorbed asialofetuin (ASF), spectrophotometric. In outline:
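Competitive binding of biotinylated hGal-3 to plate-adsorbed asialofetuin was measured with serially diluted compounds over 3 h at 4° C. Bound protein was detected with streptavidin-peroxidase and ABTS substrate by absorbance. IC50 values are means of several measurements.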

Another experiment addresses human Gal-1 (hGal-1) (Homo sapiens, UniProt P09382). Kind of experiment: Competitive binding assay: biotinylated hGal-1 binding to microplate-adsorbed asialofetuin (ASF), spectrophotometric. The note with it: hGal-1 binding to asialofetuin; Table 15; R and S epimers of selected Examples also listed; read-out: IC50 (Galectin-1 inhibition). In outline: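 Biotinylated hGal-1 (300-1000 ng/mL) incubated with compound on asialofetuin-coated plates 3 hours at 4 °C, washed, then streptavidin-peroxidase (80 ng/mL) 1 hour at 4 °C. ABTS substrate read spectrophotometrically; IC50 reported as mean of several measurements.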

The mark [2] stands for this setting: Gal-3 inhibition, Table 4, read-out: IC50.
The mark [3] stands for this setting: Table 8, hGal-3, read-out: IC50 (Gal-3 inhibition).
The mark [4] stands for this setting: Table 12, hGal-3, read-out: IC50 (Gal-3 inhibition).
The mark [5] stands for this setting: Gal-3 inhibition, Table 5, read-out: IC50.

Like-named read-outs stand apart in the source and are kept apart here.

Sequence of biotinylated human Gal-3 (hGal-3) (P17931 whole entry): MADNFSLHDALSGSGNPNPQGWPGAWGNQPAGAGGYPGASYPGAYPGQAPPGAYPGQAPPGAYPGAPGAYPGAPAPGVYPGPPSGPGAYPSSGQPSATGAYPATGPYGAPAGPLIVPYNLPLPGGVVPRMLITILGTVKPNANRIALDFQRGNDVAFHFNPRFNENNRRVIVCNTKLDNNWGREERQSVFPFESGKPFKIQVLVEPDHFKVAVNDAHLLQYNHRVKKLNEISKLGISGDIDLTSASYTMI
Sequence of human Gal-1 (hGal-1) (P09382 whole entry): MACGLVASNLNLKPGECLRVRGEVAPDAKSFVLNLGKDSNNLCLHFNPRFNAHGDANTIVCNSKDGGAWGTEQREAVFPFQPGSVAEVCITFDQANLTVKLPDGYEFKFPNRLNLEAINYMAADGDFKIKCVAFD

Regarding `CN(CC1CC1)C(=O)[C@H](S[C@@H]1O[C@H](CO)[C@H](O)[C@H](n2cc(-c3cc(F)c(F)c(F)c3)nn2)[C@H]1O)C1(O)CCOCC1` [Example 2.41.218R., (R)-N-(Cyclopropylmethyl)-2-(((2S,3R,4S,5R,6R)-3,5-dihydroxy-6-(hydroxymethyl)-4-(4-(3,4,5-trifluorophenyl)-1H-1,2,3-triazol-1-yl)tetrahydro-2H-pyran-2-yl)thio)-2-(4-hydroxytetrahydro-2H-pyran-4-yl)-N-methylacetamide], the IC50 (commonly the midpoint of a concentration-inhibition curve) was determined as 2250 nM in experiment [1] (setting [2]) and 19000 nM at human Gal-1 (hGal-1).
Turning to `CCN(C)C(=O)C(S[C@@H]1O[C@H](CO)[C@H](O)[C@H](n2cc(-c3cc(F)c(F)c(F)c3)nn2)[C@H]1O)C1(O)CCN(S(=O)(=O)C2CC2)CC1` (stereo partly drawn) [Example 2.51.203., 2-(1-(Cyclopropylsulfonyl)-4-hydroxypiperidin-4-yl)-2-(((2S,3R,4S,5R,6R)-3,5-dihydroxy-6-(hydroxymethyl)-4-(4-(3,4,5-trifluorophenyl)-1H-1,2,3-triazol-1-yl)tetrahydro-2H-pyran-2-yl)thio)-N-ethyl-N-methylacetamide], the values for the IC50 (in experiment [1] (setting [3]); at human Gal-1 (hGal-1)) were 30 nM and 70 nM, respectively.
`CO[C@@H]1[C@@H](n2cc(-c3cc(F)c(F)c(F)c3)nn2)[C@@H](O)[C@@H](CO)O[C@H]1SC(C(=O)N(C)C1CCOCC1)C1(O)CCC(F)(F)CC1` (stereo partly drawn) [Example 2.44.213.I., 2-(4,4-Difluoro-1-hydroxycyclohexyl)-2-(((2S,3R,4S,5R,6R)-5-hydroxy-6-(hydroxymethyl)-3-methoxy-4-(4-(3,4,5-trifluorophenyl)-1H-1,2,3-triazol-1-yl)tetrahydro-2H-pyran-2-yl)thio)-N-methyl-N-(tetrahydro-2H-pyran-4-yl)acetamide]: the IC50 amounted to 70 nM in experiment [1] (setting [4]) and 150 nM on human Gal-1 (hGal-1).
In the case of `CCN(C)C(=O)[C@H](S[C@@H]1O[C@H](CO)[C@H](O)[C@H](n2cc(-c3cc(F)c(F)c(F)c3)nn2)[C@H]1O)C1(O)CCN(S(=O)(=O)C2CC2)CC1` [Example 2.51.203R., (R)-2-(1-(Cyclopropylsulfonyl)-4-hydroxypiperidin-4-yl)-2-(((2S,3R,4S,5R,6R)-3,5-dihydroxy-6-(hydroxymethyl)-4-(4-(3,4,5-trifluorophenyl)-1H-1,2,3-triazol-1-yl)tetrahydro-2H-pyran-2-yl)thio)-N-ethyl-N-methylacetamide], the IC50 in experiment [1] (setting [3]) was found to be 4960 nM; at human Gal-1 (hGal-1) it was 7500 nM.
With `CC(C)CN(C)C(=O)C(S[C@@H]1O[C@H](CO)[C@H](O)[C@H](n2cc(-c3cc(F)c(F)c(F)c3)nn2)[C@H]1O)C1(O)CCOCC1` (stereo partly drawn) [Example 2.41.200., 2-(((2S,3R,4S,5R,6R)-3,5-Dihydroxy-6-(hydroxymethyl)-4-(4-(3,4,5-trifluorophenyl)-1H-1,2,3-triazol-1-yl)tetrahydro-2H-pyran-2-yl)thio)-2-(4-hydroxytetrahydro-2H-pyran-4-yl)-N-isobutyl-N-methylacetamide], the IC50 turned out to be 60 nM in experiment [1] (Gal-3 inhibition, Table 2, read-out: IC50) and 260 nM on human Gal-1 (hGal-1).
As to `CN(Cc1cn(C)cn1)C(=O)C(S[C@@H]1O[C@H](CO)[C@H](O)[C@H](n2cc(-c3cc(F)c(F)c(F)c3)nn2)[C@H]1O)C1(O)CCOCC1` (stereo partly drawn) [Example 2.41.215., 2-(((2S,3R,4S,5R,6R)-3,5-Dihydroxy-6-(hydroxymethyl)-4-(4-(3,4,5-trifluorophenyl)-1H-1,2,3-triazol-1-yl)tetrahydro-2H-pyran-2-yl)thio)-2-(4-hydroxytetrahydro-2H-pyran-4-yl)-N-methyl-N-((1-methyl-1H-imidazol-4-yl)methyl)acetamide], the IC50 in experiment [1] (setting [2]) stood at 60 nM; on human Gal-1 (hGal-1), 370 nM.
Turning to `CCN(C)C(=O)[C@H](S[C@@H]1O[C@H](CO)[C@H](O)[C@H](n2cc(-c3cc(F)c(F)c(F)c3)nn2)[C@H]1O)C1(O)CC(F)(F)C1` [Example 2.33.203R., (R)-2-(3,3-Difluoro-1-hydroxycyclobutyl)-2-(((2S,3R,4S,5R,6R)-3,5-dihydroxy-6-(hydroxymethyl)-4-(4-(3,4,5-trifluorophenyl)-1H-1,2,3-triazol-1-yl)tetrahydro-2H-pyran-2-yl)thio)-N-ethyl-N-methylacetamide], the IC50 in experiment [1] (setting [5]) amounted to 1450 nM; on human Gal-1 (hGal-1) it was 4200 nM.
As to `O=C([C@@H](S[C@@H]1O[C@H](CO)[C@H](O)[C@H](n2cc(-c3cc(F)c(F)c(F)c3)nn2)[C@H]1O)C1(O)CCOCC1)N1CCc2ccccc21` [Example 2.41.209S., (S)-2-(((2S,3R,4S,5R,6R)-3,5-Dihydroxy-6-(hydroxymethyl)-4-(4-(3,4,5-trifluorophenyl)-1H-1,2,3-triazol-1-yl)tetrahydro-2H-pyran-2-yl)thio)-2-(4-hydroxytetrahydro-2H-pyran-4-yl)-1-(indolin-1-yl)ethan-1-one], the IC50 in experiment [1] (setting [2]) is 100 nM; at human Gal-1 (hGal-1) it was 170 nM.
For `CCN(C)C(=O)[C@@H](S[C@@H]1O[C@H](CO)[C@H](O)[C@H](n2cc(-c3cc(F)c(F)c(F)c3)nn2)[C@H]1O)C1(O)CCN(C(=O)OC)CC1` [Example 2.50.203S., (S)-Methyl 4-(1-(((2S,3R,4S,5R,6R)-3,5-dihydroxy-6-(hydroxymethyl)-4-(4-(3,4,5-trifluorophenyl)-1H-1,2,3-triazol-1-yl)tetrahydro-2H-pyran-2-yl)thio)-2-(ethyl(methyl)amino)-2-oxoethyl)-4-hydroxypiperidine-1-carboxylate], the IC50 in experiment [1] (setting [3]) was 40 nM; on human Gal-1 (hGal-1), 60 nM.
Regarding “(S)-N-Cyclobutyl-2-(4,4-difluoro-1-hydroxycyclohexyl)-2-(((2S,3R,4S,5R,6R)-3,5-dihydroxy-6-(hydroxymethyl)-4-(4-(3,4,5-trifluorophenyl)-1H-1,2,3-triazol-1-yl)tetrahydro-2H-pyran-2-yl)thio)-N-methylacetamide [Example 2.44.206S.]”, the values for the half-inhibitory concentration (IC50) (in experiment [1] (setting [5]); at human Gal-1 (hGal-1)) were 40 nM and 190 nM, respectively.
On to `CN(Cc1cn(C)cn1)C(=O)C(S[C@@H]1O[C@H](CO)[C@H](O)[C@H](n2cc(-c3cc(F)c(F)c(F)c3)nn2)[C@H]1O)C(C)(C)O` (stereo partly drawn) [Example 2.31.215., 2-(((2S,3R,4S,5R,6R)-3,5-Dihydroxy-6-(hydroxymethyl)-4-(4-(3,4,5-trifluorophenyl)-1H-1,2,3-triazol-1-yl)tetrahydro-2H-pyran-2-yl)thio)-3-hydroxy-N,3-dimethyl-N-((1-methyl-1H-imidazol-4-yl)methyl)butanamide], for which the IC50 was 190 nM in experiment [1] (Table 6, hGal-3, read-out: IC50 (Gal-3 inhibition)) and 1680 nM at human Gal-1 (hGal-1).
`CN(CC1CC1)C(=O)C(S[C@@H]1O[C@H](CO)[C@H](O)[C@H](n2cc(-c3cc(F)c(F)c(F)c3)nn2)[C@H]1O)C(O)c1ccn(C)n1` (stereo partly drawn) [Example 2.65.218., N-(cyclopropylmethyl)-2-(((2S,3R,4S,5R,6R)-3,5-dihydroxy-6-(hydroxymethyl)-4-(4-(3,4,5-trifluorophenyl)-1H-1,2,3-triazol-1-yl)tetrahydro-2H-pyran-2-yl)thio)-3-hydroxy-N-methyl-3-(1-methyl-1H-pyrazol-3-yl)propanamide]: the IC50 in experiment [1] (Gal-3 inhibition, Table 7, read-out: IC50) turned out to be 690 nM; on human Gal-1 (hGal-1) it was 3070 nM.
Take `CCN(C)C(=O)C(S[C@@H]1O[C@H](CO)[C@H](O)[C@H](n2cc(-c3cc(F)c(Cl)c(Cl)c3)nn2)[C@H]1O)C1(O)CCOCC1` (stereo partly drawn) [Example 17.41.203., 2-(((2S,3R,4S,5R,6R)-4-(4-(3,4-Dichloro-5-fluorophenyl)-1H-1,2,3-triazol-1-yl)-3,5-dihydroxy-6-(hydroxymethyl)tetrahydro-2H-pyran-2-yl)thio)-N-ethyl-2-(4-hydroxytetrahydro-2H-pyran-4-yl)-N-methylacetamide]: the IC50 was 40 nM in experiment [1] (Table 11, hGal-3, read-out: IC50 (Gal-3 inhibition)) and 140 nM at human Gal-1 (hGal-1).
For `CO[C@@H]1[C@@H](n2cc(-c3cc(F)c(F)c(F)c3)nn2)[C@@H](O)[C@@H](CO)O[C@H]1SC(C(=O)NCC(F)(F)F)C1(O)CCC(F)(F)CC1` (stereo partly drawn) [Example 2.44.254.I., 2-(4,4-Difluoro-1-hydroxycyclohexyl)-2-(((2S,3R,4S,5R,6R)-5-hydroxy-6-(hydroxymethyl)-3-methoxy-4-(4-(3,4,5-trifluorophenyl)-1H-1,2,3-triazol-1-yl)tetrahydro-2H-pyran-2-yl)thio)-N-(2,2,2-trifluoroethyl)acetamide], the IC50 in experiment [1] (setting [4]) was determined as 130 nM; on human Gal-1 (hGal-1), 300 nM.
`CO[C@@H]1[C@@H](n2cc(-c3cc(F)c(F)c(F)c3)nn2)[C@@H](O)[C@@H](CO)O[C@H]1SC(C(=O)N1CCC(F)(F)CC1)C1(O)CCC(C)(C)CC1` (stereo partly drawn) [Example 2.68.226.I., 1-(4,4-Difluoropiperidin-1-yl)-2-(1-hydroxy-4,4-dimethylcyclohexyl)-2-(((2S,3R,4S,5R,6R)-5-hydroxy-6-(hydroxymethyl)-3-methoxy-4-(4-(3,4,5-trifluorophenyl)-1H-1,2,3-triazol-1-yl)tetrahydro-2H-pyran-2-yl)thio)ethan-1-one]: the IC50 in experiment [1] (Table 13, hGal-3, read-out: IC50 (Gal-3 inhibition)) is 100 nM; on human Gal-1 (hGal-1), 190 nM.
As for `CN(CC1(F)CCCC1)C(=O)C(S[C@@H]1O[C@H](CO)[C@H](O)[C@H](n2cc(-c3cc(F)c(F)c(F)c3)nn2)[C@H]1O)C1(O)CCC(F)(F)CC1` (mixture of isomers) [Example 2.44.223., 2-(4,4-Difluoro-1-hydroxycyclohexyl)-2-(((2S,3R,4S,5R,6R)-3,5-dihydroxy-6-(hydroxymethyl)-4-(4-(3,4,5-trifluorophenyl)-1H-1,2,3-triazol-1-yl)tetrahydro-2H-pyran-2-yl)thio)-N-((1-fluorocyclopentyl)methyl)-N-methylacetamide], the IC50 was 50 nM in experiment [1] (setting [5]) and 120 nM at human Gal-1 (hGal-1).

Values taken from US12410208B2, “(2-acetamidyl)thio-beta-D-galactopyranoside derivatives” (Idorsia Pharmaceuticals Ltd, priority 2020, dated 2025).
